Test results reported in publication PMC7211195 (Investigational New Drugs, 2019).
Values joined by “and” are separate entries in the source; they are usually repeats but may differ in a detail not shown here. Identical values can stand only once.

Assay: Lapatinib pharmacokinetics and uptake in rat brain tissue (BT);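 on BT corr (BT homogenate corrected), single rat: brain concentration corrected for residual brain blood by the Fridén method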;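 on BT corr (BT homogenate), single rat: brain concentration corrected for residual brain blood by the Fridén method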
Type: in vivo, rats
Conditions: for BT corr (BT homogenate), S / BT corr (BT homogenate), single rat: lapatinib 100 mg/kg + elacridar; for BT corr (BT homogenate corrected), single rat: lapatinib p.o. 100 mg/kg alone, 100 mg/kg
Method: This study was conducted on rats, which are a promising model to predict P-gp-based drug-drug interactions at the human BBB [15]. The animals were allowed to acclimate for one week before the beginning of the experiments. Adult male Wistar-strain rats (weight 470–525 g) were used in the study. The animals were maintained under standard breeding conditions with a 12/12 h light-dark cycle (lights on at 6.00 a.m., lights off at 6.00 p.m.) at constant room temperature (23 ± 2 °C), relative humidity (55 ± 10%) and ad libitum access to food and water. The experimental protocol for this study was reviewed and approved by the Local Ethics Committee. To obtain consistent data, the study was based on the required minimum number of animals and observation time. […] Three rats were used at each time point (n = 3). In total, the research was conducted on 66 animals (n = 33 in the experimental group and n = 33 in the control group).
Elacridar was freshly dissolved in a vehicle at an initial concentration of 20 mg/mL. […] A volume of 80 μL of blood was collected from each rat by cutting off a piece of its tail. The blood samples were collected into heparinized test tubes at the following time points: […], and they were immediately centrifuged at 2880 g for 10 min at 4 °C. The anaesthetized rats (anaesthetized by intramuscular administration of 50 mg/kg ketamine and 10 mg/kg xylazine) were prepared for cisterna magna puncture. The hair over the puncture was removed and the skin was disinfected with alcohol. The animals were placed in a recumbent position with an elevated rear part of the body. The animals’ heads were slightly flexed and immobilized with the operator’s left hand. The space between the occiput rostrally and the atlas (C1) of the spinal column caudally was gently palpated with the left thumb. A 0.7 × 20 G needle with polyethylene tubing (Terumo Poland, Warsaw, Poland) was gently inserted at an approximate angle of 80–90° through the skin with the operator’s right hand into the midsagittal region. The moment that dura mater perforation was perceptible, a small amount of CSF was found in the needle tubing. To sample additional CSF, a 1 mL insulin syringe (Becton Dickinson, Warsaw, Poland) was used to collect 80–120 μL of CSF by very gentle aspiration. Only clear CSF was collected for further analysis. […] The animals’ brains were immediately dissected, washed in 0.9% NaCl and divided along the longitudinal axis. One of the brain hemispheres was again rinsed three times with 5 mL of 0.9% NaCl, weighed and homogenized with 0.9% NaCl (4 mL per 1 g of BT) in an Ultra-Turrax homogenizer (Witko, Łódź, Poland). The homogenate was then centrifuged at 4500 g for 10 min. All samples of the rat BP, CSF, and BT homogenate supernatant were stored at −80 °C until analysis.
The chromatographic analysis was conducted using a 1260 Infinity system (Agilent Technologies, Santa Clara, USA) equipped with a Kinetex® C18 column (50 × 4.6 mm, 2.6 μm, Phenomenex, Torrance, USA), which was maintained at 35 °C. The mobile phase consisted of 0.1% formic acid (v/v) in water with 5 mM ammonium formate (solvent A) and acetonitrile with 10% phase A (v/v, solvent B). The analyte and internal standard (IS, erlotinib) were eluted using a gradient run of 10 min as follows: 95% A at 0–2 min; 95%–5% A at 2–4 min; 5% A at 4–5 min; 5%–95% A at 5–6 min; 95% A at 6–10 min. The flow rate and injection volume were set at 0.7 mL/min and 10 μL, respectively. The needle was washed for 30 s in a mixture of acetonitrile, methanol, isopropanol, water, and formic acid (50:20:15:15:0.25, v/v/v/v/v).

In the case of `CS(=O)(=O)CCNCc1ccc(-c2ccc3ncnc(Nc4ccc(OCc5cccc(F)c5)c(Cl)c4)c3c2)o1` [lapatinib, N-{3-Chloro-4-[(3-fluorobenzyl)oxy]phenyl}-6-[5-({[2-(methylsulfonyl)ethyl]amino}methyl)-2-furyl]-4-quinazolinamine], the “AUC0-∞ increase by elacridar” value (BT) is reported as 1.9 times, the “Cmax increase in IE+L vs control” value (BT) is reported as 1.55 fold and 1.5 fold and the “Kp decrease in IL+E group vs control” value (BT) is reported as 25%. The “t0.5 longer in the presence of elacridar” value (BT) was 2.5 times, the “AUC0-t increased in IE+L” value (BT, IE+L vs IIL group) was 92.6% and the “AUC0-∞ increase with elacridar” value (BT, IE+L vs IIL group) was 86.5%. For the same compound, the “Cmax increase with elacridar” value (BT, IE+L vs IIL group) was 54.7%, the AUMC0-t (brain tissue, lapatinib 100 mg/kg oral + 5 mg/kg elacridar (IE+L), first AUMC0-t line (r32)) was 16,040.19 ± 2981.02 ng × h^2/mL and the AUMC0-t (brain tissue, lapatinib 100 mg/kg oral + 5 mg/kg elacridar (IE+L), second AUMC0-t line (r33)) was 57,148.33 ± 29,162.29 ng × h^2/mL. For the same compound, the MRT0-t (brain tissue, lapatinib 100 mg/kg oral alone (IIL)) was 5.73 ± 0.06 h, the AUMC0-t (brain tissue, lapatinib 100 mg/kg oral alone (IIL), first AUMC0-t line (r32)) was 4792.63 ± 173.92 ng × h^2/mL and the AUMC0-t (brain tissue, lapatinib 100 mg/kg oral alone (IIL), second AUMC0-t line (r33)) was 17,455.77 ± 17,542.73 ng × h^2/mL. The “BT corr (BT homogenate), S” value (0.25 h) was 33.08 ng/mL, the “BT corr (BT homogenate), single rat” value (0.25 h) was 35.46 ng/mL and the “BT corr (BT homogenate), single rat” value (0.25 h, listed as Lapatinib) was 35.46 ng/mL. For the same compound, the “BT corr (BT homogenate), S” value (0.5 h) was 43.57 ng/mL, the “BT corr (BT homogenate), single rat” value (0.5 h) was 41.98 ng/mL and the “BT corr (BT homogenate), single rat” value (0.5 h, listed as Lapatinib) was 41.98 ng/mL. The “BT corr (BT homogenate), single rat” value (2 h) was 39.78 ng/mL and 102.9 ng/mL, the “BT corr (BT homogenate), single rat” value (2 h, listed as Lapatinib) was 39.78 ng/mL and 102.90 ng/mL and the “BT corr (BT homogenate), S” value (3 h) was 197.6723 ng/mL. For the same compound, the “BT corr (BT homogenate), single rat” value (3 h) was 170.09 ng/mL and 225.26 ng/mL, the “BT corr (BT homogenate), single rat” value (3 h, listed as Lapatinib) was 225.26 ng/mL and the “BT corr (BT homogenate), S” value (4 h) was 85.05 ng/mL. For the same compound, the “BT corr (BT homogenate), single rat” value (4 h) was 91.94 ng/mL, the “BT corr (BT homogenate), S” value (6 h) was 85.7722 ng/mL and the “BT corr (BT homogenate), single rat” value (6 h) was 84.2 ng/mL. The “BT corr (BT homogenate), single rat” value (6 h, listed as Lapatinib) was 84.20 ng/mL, the “BT corr (BT homogenate), S” value (8 h) was 85.02 ng/mL and the “BT corr (BT homogenate), single rat” value (12 h) was 45.12 ng/mL. For the same compound, the “BT corr (BT homogenate), single rat” value (12 h, listed as Lapatinib) was 45.12 ng/mL, the “BT corr (BT homogenate), S” value (24 h) was 44.69 ng/mL and the “BT corr (BT homogenate), single rat” value (24 h) was 36.68 ng/mL. For the same compound, the “BT corr (BT homogenate), single rat” value (24 h, listed as Lapatinib) was 36.68 ng/mL, the “BT corr (BT homogenate corrected), single rat” value (0.25 h) was 33.26 ng/mL and the “BT corr (BT homogenate corrected), single rat” value (0.25 h, listed as Lapatinib) was 33.26 ng/mL. For the same compound, the “BT corr (BT homogenate corrected), single rat” value (0.5 h) was 39.02 ng/mL and the “BT corr (BT homogenate corrected), single rat” value (0.5 h, listed as Lapatinib) was 39.02 ng/mL.
